The test system of series [1] is mBMDCs. The experiment in a line: IL-12 induction in mBMDCs (ELISA). Type of series: cell-based, mouse. Conditions: 10 μM / dose response. As to the method: (§1) All these analogs were evaluated for induction of IL-12 cytokine at 10 μM, followed by dose response IL-12 induction for selected analogs. These analogs were also evaluated for exosome release by quantitating EV release in the supernatant post 48 hours incubation with CD63-Tluc-CD9-EmGFP THP-1 reporter cells.
mBMDCs (10^5 cells/200 μL/well) were plated in wells of 96-well plates and treated with test compound (5 μM or 10 μM) or vehicle (0.5% DMSO) overnight.
Background: An ELISA detects its analyte on a solid surface through an enzyme-linked reagent.

Series [2] concerns CD63-Tluc-CD9-EmGFP THP-1 reporter cells. The experiment in a line: CD63 Tluc-CD9 EmGFP THP-1 reporter cell assay (EV/exosome release). Type of series: cell-based, human. Conditions: 48 hours incubation. As to the method: as §1
In the HTS using CD63-Tluc-CD9EmGFP reporter cells (CD63 HTS), PMA (10 ng/ml) was used as a positive control (Shpigelman et al., 2021) and 0.5% DMSO was used as negative control (vehicle, Veh). Briefly, the harvested cells were resuspended in assay media containing 10% exosome-depleted […] (#A2720801, Thermo Fisher Scientific) and plated at 2×10^5 cells/mL (50 μL/well of 384-well plates) (#3674, Corning). Test compounds were added at a final concentration of 10 μM to cells and incubated for 48 hours at 37° C. Subsequently, the plate was centrifuged, supernatant (25 μL) was transferred, and chemiluminescent was measured as recombinant luciferase activity (RLU) after 10 minutes incubation with TurboLuc assay reagent (TurboLuc™ One-Step Glow Assay kit, Thermo Fisher Scientific). The response that measures activation and subsequent release of EVs was calculated using the following formula; % response=100×(compound RLU−average Veh RLU)/(average PMA RLU−average Veh RLU). The viability of cells was assessed using PrestoBlue reagent (Thermo Fisher Scientific). Briefly, PrestoBlue reagent (2.5 μl) was added to the remaining cells and incubated for 30 minutes at room temperature, followed by fluorescence readout at (Ex 560 nm/Em 590 nm) which was normalized to fluorescence data of the Veh wells within the plate to obtain “% viability” calculated as 100×(compound fluorescence/average Veh fluorescence).
CD63 Tluc-CD9 EmGFP THP-1 reporter cell assay. CD63 Tluc CD9 EmGFP THP-1 reporter cell (designated as CD63 Tluc reporter cells) were incubated with 10 μM test compounds, ION (1 μM), or 0.5% DMSO (negative control) in the RPMI 1640 supplemented with exosome-depleted FBS at 5×10^4 cells in 200 μL/well for a 96-well plate for 48 hours at 37° C. Subsequently, the plate was centrifuged, the supernatant was transferred, and chemiluminescence was measured by TurboLuc™ Luciferase One-Step Glow Assay Kit. The response that measures activation and subsequent release of EVs was calculated using the following formula; % response=100×(compound RLU−average Veh RLU)/(average PMA RLU−average Veh RLU).

A further series relates to 4T1 breast cancer. The experiment in a line: Murine lung metastasis models (4T1 breast cancer). Type of series: in vivo, mouse. An excerpt:
Recent advances in cancer immunotherapy have improved patient survival. However, only a minority patients with pulmonary metastatic disease responds to treatment with checkpoint inhibitors. As an alternate approach, we have tested the ability of systemically administered 1V270, a toll-like receptor 7 (TLR7) agonist conjugated to a phospholipid, to inhibit lung metastases in two variant murine 4T1 breast cancer models, as well as in B16 melanoma, and Lewis lung c models.

The subject of series [3] is mBMDCs. The experiment in a line: Costimulatory molecule expression on mBMDCs (flow cytometry). Type of series: cell-based, mouse. As to conditions: 634 10 μM, ION 1 μM, MPLA 1 μg/mL overnight, vs Veh. As to the method:
FIGS. 26A-26D. Flow cytometric analysis for costimulatory molecules on mBMDCs. For costimulatory molecules on mBMDCs, mBMDCs (10^6 cells/mL) were incubated with 634 (10 μM), ION (1 μM), and MPLA (1 μg/mL) for 20-24 hours. 0.5% DMSO was used as a vehicle. After removing the supernatant, cells were washed with the stain buffer and incubated with anti-mouse CD16/32 antibody for blocking FcR. Cells were stained with an antibody cocktail with anti-CD86 (A), anti-CD80 (B), anti-MHC class II (C), and anti-CD40 (D) antibodies for 30 minutes at 4° C. Cells were then washed and stained with DAPI (4′,6-diamino-2phenylindole) for 10 minutes at room temperature to exclude dead cells (DAPI^high) from the analysis. Data were acquired using MACSQuant Analyzer 10 (Miltenyi Biotec, Germany) and analyzed with FlowJo (version 10.8.1).
mBMDCs (10^5 cells/200 μL/well) were treated with a test compound (10 μM) or Veh (0.5% DMSO) overnight and then the costimulatory molecule expression on mBMDCs was evaluated using flow cytometry. The cells were stained with antibodies for CD11c, CD80, CD83, CD86, CD40, and MHC class II. Dead cells (DAPI high) were excluded from the analysis. Percent positive population of CD80, CD83, CD86, CD40, or MHC class II in the gated CD11c population were analyzed.
Costimulatory Molecule Expression Analysis. mBMDCs (10^6 cells/mL) were incubated with 10 μM compound, 1 μM lonomycin and 1 μg/mL MPLA for 20 to 24 hours. 0.5% DMSO was used as vehicle. Cells were incubated with anti-mouse CD16/32 antibody for blocking FcR and stained with anti-CD11c, anti-CD40, […], anti-CD83, […], or anti-MHC class II antibodies for 30 minutes at 4° C. Cells were stained with 4′,6-diamino-2-phenylindole (DAPI) for 10 minutes at RT. Data were acquired using MACSQuant Analyzer 10 (Miltenyi Biotec, Germany) and analyzed with FlowJo (version 10.8.1, Becton Dickinson, Ashland, OR)).

Molecules are shown by their SMILES. Entries after “also recorded” stand apart in the source; their conditions may differ.

Take `Cc1ccccc1-c1cncc(-c2nnc(-c3cccc4ccccc34)o2)c1` [2C183]: the IL-12 induction entry in the series on mBMDCs [1] was “induced IL-12 in BMDCs”. In addition, in series [2], the “exosome (EV) release in CD63 reporter THP-1 cells” value was “enhanced exosome release in CD63 reporter THP-1 cells”.

For `Cc1cccc(-c2cncc(-c3nnc(-c4cccc5ccccc45)o3)c2)c1` [2C185], the IL-12 induction entry in the series on mBMDCs [1] was “enhance exosome release and IL-12 induction; also recorded: induced IL-12 in BMDCs”. Moreover, in series [2], the “exosome (EV) release in CD63 reporter THP-1 cells” value is “enhance exosome release; also recorded: enhanced exosome release in CD63 reporter THP-1 cells”.

Regarding `COc1ccc(-c2nnc(-c3cccnc3)o2)cc1OC` [#1310], in the series with mBMDCs [1], the IL-12 induction result is “as potent as #645”. Same read-out and setting: the value for `c1ccc(-c2cn(-c3cncc(-c4cccs4)c3)nn2)cc1` [2H050] was “significantly enhanced cytokine IL-12 induction”; that for `Clc1ccc(-c2nnc(-c3cccnc3)o2)cc1` [#1311] was “as potent as #645”. With `CCCCCCCC/C=C\CCCCCCCC(=O)OCC(COP(=O)(O)OCCNC(=O)c1ccc(Cn2c(=O)[nH]c3c(N)nc(OCCOC)nc32)cc1)OC(=O)CCCCCCC/C=C\CCCCCCCC` (stereo not drawn) [1V270], the “lung metastases / tumor cell colonization in the lungs” value in the series with 4T1 breast cancer (4T1 breast cancer models, systemic administration) is “inhibited lung metastases; also recorded: inhibited colonization by tumor cells in the lungs”. In the series on 4T1 breast cancer (compared to the unconjugated agonist), the toxic effects entry is “minimal toxic effects”. In the series on 4T1 breast cancer (intranasal administration), the “lung metastasis after intranasal administration” value was “suppressed lung metastasis”. On to `C[C@H](CCC(=O)O)C[C@H](C)C[C@H](C)C(=O)/C=C(\O)[C@H](C)C[C@H](C)C/C=C/[C@@H](C)[C@@H](O)[C@@H](C)[C@@H](O)C[C@@H]1CC[C@@](C)([C@H]2CC[C@@](C)([C@@H](C)O)O2)O1` [ION, ionomycin, reference compound], for which, in the series on mBMDCs [3], the “CD80 expression on mBMDCs” value is “increased CD86 and CD80 expression on mBMDCs”; the “CD86 expression on mBMDCs” value was “increased CD86 and CD80 expression on mBMDCs”.

(Values after patent US20250281465A1, “MOLECULES THAT ENHANCE EXTRACELLULAR VESICLE RELEASE” (priority 2022, published 2025).)
